Assay results published in patent US11352624B2, “Reducing nonsense-mediated MRNA decay” (Cold Spring Harbor Laboratory, priority 2013, dated 2022).

Columns and labels:
[1] = test system: mammalian cells carrying PTCs related to Usher syndrome, Rett syndrome, cystic fibrosis, and mucopolysaccharidosis I-Hurler (MPS I-H); details: cited from earlier work
[2] = test system: PTC-containing CFTR transcript (W1282X); assay: Radioactive RT-PCR of cells expressing CFTR minigene carrying W1282X, transfected with ASOs; assay type: cell-based, human; details: for relative potency among ASOs of each CFTR exon-exon junction (screening): boundaries 24/25, 25/26, 26/27, 19 ASOs each
Experimental: ASO microwalks are performed as previously described (7), altogether targeting a region that spans 33 nt from −6 to −38 of the 3′ end of exons that are EJC-bound (FIG. 2). Briefly, cell lines expressing minigenes carrying mutations in the last EJC-bound exon or their wild-type versions and GFP (by transfection using lipofectamine or induction with tetracycline) are co-transfected with each of the 15-mer ASOs, independently. In total, 19 ASOs that are consecutively shifted by 1 nt are tested for each EJC-bound exon-exon junction downstream of the mutations (FIG. 2). This methodology was followed in designing the sequences for the ASOs to target PTC-containing (e.g., disease-causing nonsense mutation) HBB alleles (See SEQ ID NOs 1-19), MECP2 alleles (See SEQ ID NOs 20-38), CFTR alleles (See SEQ ID NOs 39-114), DMD alleles (See SEQ ID NOs 115-190), and IDUA alleles (See SEQ ID Nos 191-268). Different concentrations of ASOs are tested to obtain a dose-response curve. In the case of genes containing more than one exon-exon junction downstream of a PTC, minigene intermediates are constructed to screen for NMD-inhibiting ASOs one junction at a time and in combination with the best targeting ASO that resulted from the screening of the upstream junction. Abrogation of NMD is assessed by RT-PCR, and the percentage of mutant transcript is calculated as described above. Because some of the ASOs might interfere with splicing-factor binding sites, it is important to determine whether the splicing of the targeted exons is adversely affected. Only the ASOs that abrogate NMD without negative effects on splicing are pursued.
Moreover, minigenes consisting of CFTR exons 22-25, 22-26 and 22-27 carrying the W1282X mutation in exon 23 as well as its restive wild-type version were generated. As described above, 19 15-mer ASOs were obtained that target a region spanning nucleotides −38 to −6 of the exons 24/25 boundary and transfected to CFTR minigene expressing cells. Once this screening identified the best NMD inhibiting ASO, it is then transfected in combination with each the 19 15-mer ASOs that target a region spanning nucleotides −38 to −6 of the exons 25/26 boundary. The resulting best combination of ASOs (from each exon-exon boundary) was then transfected in combination with each of the 19 15-mer ASOs that target a region spanning nucleotides −38 to −6 of the exons 26/27 boundary. The levels of spliced CFTR mRNA were then measured after induced expression using radioactive RT-PCR.

[3] = test system: MECP2 S65X transcript; assay: MECP2 S65X minigene reporter, mRNA level after ASO transfection; assay type: cell-based, human; details: microwalk of 19 ASOs
Description: (§1) In some examples, it is desirable to start with mutations located in the last presumptive EJC-bound exon, as targeting only one junction at a time will simplify the interpretation of results. Once the effectiveness of preventing EJC deposition by ASOs is confirmed, two or more junctions are targeted. In some examples, three mutations for each gene are selected, and only mutations that lead to a transcript level <50% of the wild-type transcript will be targeted by the ASO microwalk (discussed below). […] Briefly, minigenes carrying the selected mutations and their wild-type versions are co-transfected with a GFP-expressing vector into HeLa cells. Forty-eight hours later, RNA is extracted and radioactive RT-PCR is performed. Products corresponding to the wild-type and mutant minigenes are normalized to GFP expression, and the percentage of the mutant over the wild-type transcript is calculated. In the case of integrated minigenes into U2OS cells, wild-type and mutant minigene products are normalized to endogenous housekeeping genes, e.g. GAPDH.
(§2) ASO microwalks are performed as previously described (7), altogether targeting a region that spans 33 nt from −6 to −38 of the 3′ end of exons that are EJC-bound (FIG. 2). […] Abrogation of NMD is assessed by RT-PCR, and the percentage of mutant transcript is calculated as described above. […]

[4] = test system: PTC-containing HBB transcript (T39); assay: Radioactive RT-PCR of HeLa cells co-transfected with HBB reporters and ASOs; assay type: cell-based, human; details: for mRNA levels of PTC-containing HBB transcript (T39): HeLa cells, ASO 50 nM co-transfected with HBB Q39X gene, compared with control-ASO, percentages normalized to WT
Description: as §1
as §2, with “2). Briefly, cell lines expressing minigenes carrying mutations in the last EJC-bound exon or their wild-type versions and GFP (by transfection using lipofectamine or induction with tetracycline) are co-transfected with each of the 15-mer ASOs, independently.” for “2).”
A set of 19 overlapping 2′-O-methoxyethyl phosphorothioate (MOE-P=S) ASO 15mers targeting the canonical EJC region in exon 2 of HBB were synthesized. […] The levels of spliced HBB mRNA were then measured after transient or induced expression using radioactive RT-PCR. […] Truncated protein levels resulting from the ASO treatment were assessed by western blot analysis using anti-GFP antibody.

Molecule	restoration of functional protein [1]	relative potency among ASOs of each CFTR exon-exon junction (screening) [2]	other results
NCC[C@H](O)C(=O)N[C@@H]1CC(N)[C@@H](O[C@H]2OC(CO)[C@@H](O)[C@H](O)C2N)[C@H](O[C@@H]2O[C@H](CN)[C@H](O)C2O)C1O (some centres unmarked) [NB54]	restore a significant amount of functional protein	–	–
CATATTTCTTGATCA (listed as DNA, chemistry not given here) [SEQ ID NO: 65, ASO targeting CFTR exon 24]	–	most potent ASOs targeting each exon-exon junction	–
C[C@@H](O)C1O[C@H](O[C@@H]2C(N)C[C@@H](NC(=O)[C@@H](O)CCN)[C@@H](O)C2O[C@@H]2O[C@H](CN)[C@H](O)C2O)[C@@H](N)C(O)[C@@H]1O (some centres unmarked) [NB84]	restore a significant amount of functional protein	–	–
ACTGGGTTCATCAAG (listed as DNA, chemistry not given here) [SEQ ID NO: 83, ASO targeting CFTR exon 25]	–	most potent ASOs targeting each exon-exon junction	–
GCATTCCAGCATTGC (listed as DNA, chemistry not given here) [SEQ ID NO: 107, ASO targeting CFTR exon 26]	–	most potent ASOs targeting each exon-exon junction	mRNA level of CFTR W1282X transcript, ASOs tested independently (relative potency) ([2]; CFTR 22-17 minigene, one ASO per exon-exon junction downstream of W1282X): most potent ASO
TACTTCCCAGCAGAG (listed as DNA, chemistry not given here) [SEQ ID NO: 25]	–	–	relative potency among ASOs targeting MECP2 exon 3 [3]: most potent ASO targeting MECP2 exon 3
NC[C@H]1O[C@@H](OC2C(O)[C@H](N)CC(N)[C@H]2O[C@H]2OC(CO)[C@@H](O)C(O)C2N)C(O)C1O (some centres unmarked) [NB30]	restore a significant amount of functional protein	–	–
TCTCAGGATCCACGT (all 2'-MOE, all phosphorothioate, methylation of C not given here) [SEQ ID NO: 16, ASO targeting HBB exon 2; 2′-O-methoxyethyl phosphorothioate (MOE-P=S) 15mer]	–	–	mRNA levels of PTC-containing HBB transcript (T39) [4]: increase in mRNA levels
CTCAGGATCCACGTG (2'-MOE phosphorothioate, further chemistry not given here) [SEQ ID NO: 15, 2′-O-methoxyethyl phosphorothioate (MOE-P=S) 15mer]	–	–	mRNA levels of PTC-containing HBB transcript (T39) [4]: increase in mRNA levels; relative potency among ASOs targeting HBB exon 2 ([4]; microwalk of 19 ASOs, -38 to -6 from the exon 2/exon 3 junction): most potent ASO targeting HBB exon 2
